Consider five molecules from publication PMC9265530, “The Three Two-Pore Channel Subtypes from Rabbit Exhibit Distinct Sensitivity to Phosphoinositides, Voltage, and Extracytosolic pH” (Cells, 2022).

Assay [1] addresses T1, OcTPC3 (Oryctolagus cuniculus, UniProt B8Q2W0).
T1 construct: gene TPCN3; C-terminal EGFP fusion (pEGFP-N1), transient in HEK293; previously cloned cDNA; dimer
T1 sequence (B8Q2W0 1-766): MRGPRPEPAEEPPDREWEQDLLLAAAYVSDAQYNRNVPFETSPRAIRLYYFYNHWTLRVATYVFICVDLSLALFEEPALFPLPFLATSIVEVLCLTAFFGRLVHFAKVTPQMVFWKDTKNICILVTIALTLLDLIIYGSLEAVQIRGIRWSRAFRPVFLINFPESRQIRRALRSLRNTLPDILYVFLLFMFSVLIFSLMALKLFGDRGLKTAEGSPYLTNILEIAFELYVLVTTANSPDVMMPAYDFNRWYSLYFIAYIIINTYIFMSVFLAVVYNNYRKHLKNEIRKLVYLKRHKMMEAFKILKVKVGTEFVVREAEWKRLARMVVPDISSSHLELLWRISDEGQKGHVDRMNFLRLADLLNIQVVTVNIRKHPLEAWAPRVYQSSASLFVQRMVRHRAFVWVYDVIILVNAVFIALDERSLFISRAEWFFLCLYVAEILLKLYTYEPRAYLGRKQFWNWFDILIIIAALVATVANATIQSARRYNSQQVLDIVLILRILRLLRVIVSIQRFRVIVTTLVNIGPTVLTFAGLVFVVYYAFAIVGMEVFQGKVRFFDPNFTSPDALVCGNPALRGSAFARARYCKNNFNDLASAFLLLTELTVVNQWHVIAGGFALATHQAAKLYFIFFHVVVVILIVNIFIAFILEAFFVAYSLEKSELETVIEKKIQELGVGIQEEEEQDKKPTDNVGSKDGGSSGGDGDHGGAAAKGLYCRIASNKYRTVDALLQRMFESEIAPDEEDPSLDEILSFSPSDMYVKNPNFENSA
Briefly: inside-out patch clamp, tail current at […] mV after +[…] mV step. The class given is biochemical. The settings on record: agonist; relative to 1 µM PI(3,5)P2; 4-s step to +100 mV; pH 7.2. (In general: The patch-clamp technique gives a direct electrical read-out from membranes.)

In assay [2] the target is T2, OcTPC2 (Oryctolagus cuniculus, UniProt Z9ZIB8IF81).
T2 construct: full-length, C-terminal EGFP fusion (pEGFP-N1), transient in HEK293; cloned from rabbit kidney RNA; 749/753 residues match GBCT01193833.1; dimer
Briefly: whole-endolysosome patch clamp, current at -100 mV. The assay is classed as biochemical. The settings on record: inhibitor; against 100 nM PI(3,5)P2; voltage ramps.

The target in assay [3] is T2, OcTPC2. The assay is described as follows: whole-endolysosome patch clamp, current at -100 mV. The assay is classed as cell-based. The settings on record: agonist; voltage ramps; vacuolin-1 enlarged vacuoles; cytoplasmic pH 7.2; room temperature; HEK293.
The target in assay [4] is T1, OcTPC3. Briefly: inside-out patch clamp, tail current at […] mV after +[…] mV step. The class given is cell-based.
Assay [5] has as its system T3, OcTPC1.
T3 construct: gene TPCN1; full-length, C-terminal EGFP fusion (pEGFP-N1), transient in HEK293; cloned from rabbit kidney RNA; 815/817 residues match XM_017349553.1; dimer
The assay is described as follows: inside-out patch clamp, current at -100 mV. To be noted: agonist; voltage ramps; cytoplasmic pH 7.2; room temperature; HEK293. The assay is classed as cell-based, Oryctolagus cuniculus.

For the molecule `CCCCCCCC(=O)OC[C@H](COP(=O)(O)O[C@@H]1[C@H](O)[C@H](OP(=O)(O)O)[C@@H](O)[C@H](O)[C@H]1O)OC(=O)CCCCCCC` [PI3P], the “% of PI(3,5)P2 response at 1 μM” value in assay [1] is 93.8 ± 5.1%.

As to `CCCCCCCC(=O)OC[C@H](COP(=O)(O)O[C@H]1[C@H](O)[C@@H](O)[C@H](OP(=O)(O)O)[C@@H](OP(=O)(O)O)[C@H]1O)OC(=O)CCCCCCC` [PI(3,4)P2], the “% of PI(3,5)P2 response at 1 μM” value in assay [1] is reported as 29.9 ± 5.2%. Same read-out and setting: the figure for `CCCCCCCC(=O)OC[C@H](COP(=O)(O)O[C@H]1[C@H](O)[C@@H](OP(=O)(O)O)[C@H](OP(=O)(O)O)[C@@H](OP(=O)(O)O)[C@H]1O)OC(=O)CCCCCCC` [PI(3,4,5)P3] is 7.0 ± 2.0%. As a reminder, the % inhibition is how much of the control response was suppressed. Low values mean a weak effect, high ones a strong effect. For the molecule `CCCCCCCC(=O)OC[C@H](COP(=O)(O)O[C@@H]1[C@H](O)[C@H](O)[C@@H](OP(=O)(O)O)[C@H](OP(=O)(O)O)[C@H]1O)OC(=O)CCCCCCC` [PI(4,5)P2], the “% of PI(3,5)P2 response at 1 μM” value in assay [1] amounted to 9.0 ± 2.0%. Further, the “% inhibition at 1 μM” value in assay [2] worked out at 67.6 ± 5.3%.

The EC50 is the midpoint of the concentration-response curve. A higher EC50 goes with a less potent agent. On to `CCCCCCCC(=O)OC[C@H](COP(=O)(O)O[C@@H]1[C@H](O)[C@H](OP(=O)(O)O)[C@@H](O)[C@H](OP(=O)(O)O)[C@H]1O)OC(=O)CCCCCCC` [diC8 PI(3,5)P2], for which the results for the 50% effective concentration (EC50) in assay [3], in assay [4] and in assay [5] were 0.208 ± 0.0081 µM, 0.142 ± 0.0002 µM and 0.0263 ± 0.005 µM, respectively.
